From US10828317B2, “Method of treating bacterial infections” (priority 2016, dated 2020) come the findings set out here.

Like-named read-outs stand apart in the source and are kept apart here. Where only a bound is given, the exact number is not on record here.

In one test the test system is P. aeruginosa EN0459. Briefly: MIC. It counts as cell-based, Pseudomonas aeruginosa. Conditions: Pseudomonas aeruginosa, EN0459, combination didanosine+trimethoprim+uridine, Table 10; read-out: MIC.
The next test has as its system P. aeruginosa EN0460. The test is described as follows: MIC. It counts as cell-based, Pseudomonas aeruginosa. Conditions: Pseudomonas aeruginosa, EN0460, combination didanosine+trimethoprim+uridine, Table 10; read-out: MIC.
For a further test, the system named is E. aerogenes EN0461. The test is described as follows: MIC. It counts as cell-based, Enterobacter aerogenes. As to conditions: Klebsiella aerogenes, EN0461, combination didanosine+trimethoprim+uridine, Table 10; read-out: MIC.
The test system of the next test is K. pneumoniae EN0463. Briefly: MIC. It counts as cell-based, Klebsiella pneumoniae. As to conditions: Klebsiella pneumoniae, EN0463, combination didanosine+trimethoprim+uridine, Table 10; read-out: MIC.
Another test concerns S. epidermidis EN0456. Briefly: MIC. It counts as cell-based, Staphylococcus epidermidis. Conditions: Staphylococcus epidermidis, EN0456, combination didanosine+trimethoprim+uridine, Table 10; read-out: MIC.
In a further test the test system is Citrobacter sp. EN0465. Briefly: MIC. It counts as cell-based. As to conditions: Citrobacter, SP.EN0465, combination didanosine+trimethoprim+uridine, Table 10; read-out: MIC.
The next test has as its system S. typhimurium EN0466. Briefly: MIC. It counts as cell-based. Conditions: Salmonella enterica, combination didanosine+trimethoprim+uridine, Table 10.
Test [1] relates to A. pittii or A. nosocomialis EN0180. The test is described as follows: MIC. It counts as cell-based, Acinetobacter pittii or nosocomialis. Conditions: combination didanosine+trimethoprim+uridine, Table 10; read-out: MIC.
Another test relates to K. oxytoca EN0392. Briefly: MIC. As to conditions: Klebsiella oxytoca, EN0392, combination didanosine+trimethoprim+uridine, Table 10. It counts as cell-based.
Another test relates to P. aeruginosa EN0422. Briefly: MIC. Conditions: Pseudomonas aeruginosa, EN0422, combination didanosine+trimethoprim+uridine, Table 10; read-out: MIC. The format is cell-based, Pseudomonas aeruginosa.
Another test concerns P. mirabilis ST19 EN0445. The test is described as follows: MIC. It counts as cell-based, Proteus mirabilis. As to conditions: Proteus mirabilis, ST19EN0445, combination didanosine+trimethoprim+uridine, Table 10; read-out: MIC.
The test system of another test is E. coli EN001. Briefly: MIC, WT (EN001 = EN0001, ATCC 25922). It counts as cell-based, Escherichia coli. Conditions: combination didanosine+trimethoprim+uridine, Table 20.
The test system of another test is P. aeruginosa EN004. Briefly: MIC, WT (EN004 = EN0004). The format is cell-based, Pseudomonas aeruginosa.
The next test relates to K. pneumoniae EN006. Briefly: MIC, WT (EN006 = EN0006, ATCC 13883). It counts as cell-based, Klebsiella pneumoniae.
The subject of a further test is A. baumannii EN007. Briefly: MIC, WT (EN007 = EN0007). The format is cell-based, Acinetobacter baumannii.
The subject of the next test is S. aureus EN008. The test is described as follows: MIC, Gram-positive control. The format is cell-based, Staphylococcus aureus. As to conditions: Staphylococcus aureus, EN008, combination didanosine+trimethoprim+uridine, Table 10; read-out: MIC.
Another test relates to E. coli EN012. Briefly: MIC, WT. The format is cell-based, Escherichia coli. Conditions: Escherichia coli, EN012, combination didanosine+trimethoprim+uridine, Table 10; read-out: MIC.
A further test deals with P. aeruginosa EN014. The test is described as follows: MIC, WT. It counts as cell-based, Pseudomonas aeruginosa. As to conditions: Pseudomonas aeruginosa, EN014, combination didanosine+trimethoprim+uridine, Table 10; read-out: MIC.
The next test deals with A. baumannii EN016. Briefly: MIC, WT. The format is cell-based, Acinetobacter baumannii. Conditions: Acinetobacter baumannii, EN016, combination didanosine+trimethoprim+uridine, Table 10; read-out: MIC.
The test system of the next test is E. coli EN0136. The test is described as follows: MIC, ESBL (CTX-M-2). It counts as cell-based. As to conditions: Escherichia coli, EN0136, combination didanosine+trimethoprim+uridine, Table 20; read-out: MIC.
Another test relates to E. coli EN0235. The test is described as follows: microbe, parasite or virus in culture. As to conditions: Escherichia coli, EN0235, combination didanosine+trimethoprim+uridine, Table 20. It counts as cell-based.
Another test deals with S. aureus V55. Briefly: MIC. The format is cell-based. Conditions: Staphylococcus aureus, Mupirocin resistant isolate, read-out: MIC (resistance pattern).
A further test has as its system S. aureus V86. Briefly: MIC. It counts as cell-based. Conditions: Staphylococcus aureus, V86; Mupirocin resistant isolate; read-out: MIC (resistance pattern).
Another test deals with S. aureus V308. The test is described as follows: MIC. The format is cell-based. Conditions: Staphylococcus aureus, V308; Mupirocin resistant isolate; read-out: MIC (resistance pattern).
A further test concerns S. aureus V321. Briefly: MIC. It counts as cell-based. Conditions: Staphylococcus aureus, Mupirocin resistant isolate, read-out: MIC (resistance pattern).
Where [2] appears, read: combination didanosine+trimethoprim+uridine, Table 20.

Turning to `O=c1[nH]cnc2c1ncn2[C@H]1CC[C@@H](CO)O1` [Didanosine, didanosine], the MIC in the test on P. aeruginosa EN0459 is more than 4 µg/mL; with P. aeruginosa EN0460 it was more than 4 µg/mL; in the test with E. aerogenes EN0461 it was 0.5 µg/mL; with K. pneumoniae EN0463, 0.25 µg/mL; in the test with S. epidermidis EN0456, 0.064 µg/mL; in the test on Citrobacter sp. EN0465, more than 4 µg/mL. In addition, the MIC with S. typhimurium EN0466 was 0.25 µg/mL; in test [1], more than 4 µg/mL; in the test on K. oxytoca EN0392 it was 0.25 µg/mL; with P. aeruginosa EN0422 it was more than 4 µg/mL; in the test with P. mirabilis ST19 EN0445, 1 µg/mL; with E. coli EN001, 0.25 µg/mL. Moreover, the MIC with P. aeruginosa EN004 (Pseudomonas aeruginosa, EN004, combination didanosine+trimethoprim+uridine, Table 10, read-out: MIC) is more than 4 µg/mL; with P. aeruginosa EN004 (setting [2]), more than 4 µg/mL; in the test on K. pneumoniae EN006 (Klebsiella pneumoniae, EN006, combination didanosine+trimethoprim+uridine, Table 10, read-out: MIC), 0.5 µg/mL; with K. pneumoniae EN006 (setting [2]), 0.5 µg/mL; in the test with A. baumannii EN007 (Acinetobacter baumannii, EN007, combination didanosine+trimethoprim+uridine, Table 10, read-out: MIC), more than 4 µg/mL; in the test with A. baumannii EN007 (setting [2]), more than 4 µg/mL. The MIC in the test on S. aureus EN008 is 0.5 µg/mL; with E. coli EN012, 0.064 µg/mL; with P. aeruginosa EN014, more than 4 µg/mL; in the test with A. baumannii EN016 it was more than 4 µg/mL; in the test with E. coli EN0136, more than 4 µg/mL; with E. coli EN0235 it was 0.125 µg/mL.
As to `C/C(=C\C(=O)OCCCCCCCCC(=O)O)C[C@@H]1OC[C@H](C[C@@H]2O[C@H]2[C@@H](C)[C@H](C)O)[C@@H](O)[C@H]1O` [Mupirocin], the MIC in the test on S. aureus V55, in the test with S. aureus V86, in the test with S. aureus V308 and with S. aureus V321 was more than 256 µg/mL each time.
